Values of other authors in US20110200632A1, “ADJUVANTING MATERIAL” (Lipotek Pty Ltd., priority 2005, published 2011).

System: splenocytes and macrophages
Conditions: versus Pam3Cys

## CCCCCCCCCCCCCCCC(=O)OCC(CSC[C@H](N)C(=O)O)OC(=O)CCCCCCCCCCCCCCC (stereo partly drawn) [Pam2Cys, S-[2,3-bis(palmitoyloxy)propyl]cysteine]
  stimulator of splenocytes and macrophages, compared with Pam3Cys: more potent
